# Where two headings read alike, the source gives them in different places.
# Tests used:
# foxtail, giant = experiment: Test C pre-/postemergence herbicide test; type: in vivo, Setaria faberii
# In short: (§1)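 Greenhouse pots; formulation = non-phytotoxic solvent mix + surfactant. PRE onto seeds in loam:sand; POST at 1–4 leaves (2–18 cm) in peat moss/vermiculite medium. Read-out: visual % control vs untreated, day 13–15.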
# giant foxtail = experiment: Test A pre-/postemergence herbicide test; type: in vivo, Setaria faberii; details: for Foxtail, Giant plant response rating: Preemergence, visual rating on 0 to 100 scale (0 no effect, 100 complete control)
# In short: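 Greenhouse pot test with pre- and postemergence application of surfactant-containing solvent formulations. Postemergence plants were 2–10 cm, one- to two-leaf stage. Response scored visually after ~10 days, 0 (no effect) to 100 (complete control).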
# pigweed = experiment: Test C pre-/postemergence herbicide test; type: in vivo, Amaranthus retroflexus
# In short: as §1
# velvetleaf = experiment: Test C pre-/postemergence herbicide test; type: in vivo, Abutilon theophrasti
# In short: as §1
# corn = experiment: Test C pre-/postemergence herbicide test; type: in vivo, Zea mays
# In short: as §1
# ducksalad = experiment: Test C flooded paddy test; type: in vivo, Heteranthera limosa; details: Flood
# In short: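 Visual injury scored against controls after 13 to 15 days in the greenhouse, using 0 (no effect) to 100 (complete control). Test compounds went straight into paddy water held 3 cm above the soil surface on 2-leaf-stage plants, with that flood depth maintained for the whole test.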
# crabgrass, large = experiment: Test C pre-/postemergence herbicide test; type: in vivo, Digitaria sanguinalis
# In short: as §1
# [1] = Preemergence, 62 g ai/ha, scale 0 to 100
# [2] = Preemergence, 125 g ai/ha, scale 0 to 100 (0 no effect, 100 complete control)
# [3] = Preemergence, 31 g ai/ha, scale 0 to 100 (0 no effect, 100 complete control)
# [4] = Preemergence, 250 g ai/ha, scale 0 to 100 (0 no effect, 100 complete control)
# [5] = Postemergence, 125 g ai/ha, 0 to 100 scale, 0 no effect, 100 complete control
# [6] = Postemergence, 500 g ai/ha, 0 to 100 scale (0 no effect, 100 complete control)
# [7] = preemergence, 500 g ai/ha, 0 to 100 scale
# [8] = 62 g ai/ha, scale of 0 to 100 where 0 is no effect and 100 is complete control, 13 to 15 days
# [9] = Postemergence, 31 g ai/ha, scale 0 (no effect) to 100 (complete control)
# [10] = Postemergence, 62 g ai/ha, scale 0 to 100 (0 no effect, 100 complete control)
# [11] = Postemergence, 125 g ai/ha, scale 0 to 100 (0 no effect, 100 complete control)
# [12] = Postemergence, 250 g ai/ha, scale 0 to 100 (0 no effect, 100 complete control)
# [13] = Preemergence, 31 g ai/ha, scale 0 to 100, 0 is no effect and 100 is complete control
# [14] = 125 g ai/ha, scale of 0 to 100 where 0 is no effect and 100 is complete control, 13 to 15 days
structure (smiles),measurement,setting,value
O=C1NCC(c2ccc(Cl)c(Cl)c2)C1C(=O)Nc1ccccc1F (racemic) [Compound 14],"Plant response rating, Foxtail, Giant","foxtail, giant; [1]",85
same,"Plant response rating, Foxtail, Giant","foxtail, giant; [2]",90
same,"Foxtail, Giant plant response rating","foxtail, giant; [3]",85
same,"Plant response rating, Foxtail, Giant","foxtail, giant; [4]",95
same,"Plant response rating, Foxtail, Giant",giant foxtail; [5],60
same,"Plant response rating, Foxtail, Giant",giant foxtail; [6],80
same,"Foxtail, Giant plant response rating",giant foxtail; 125 g ai/ha,80
same,"Plant response rating, Foxtail, Giant",giant foxtail; [7],90
same,"Plant response rating, Pigweed",pigweed; [1],0
same,"Plant response rating, Pigweed",pigweed; [2],0
same,"Plant response rating, Velvetleaf",velvetleaf; [1],0
same,"Plant response rating, Velvetleaf",velvetleaf; [2],0
same,"Plant response rating, Corn",corn; [1],0
same,"Plant response rating, Corn",corn; [2],0
same,Corn plant response rating,corn; [3],0
same,"Plant response rating, Corn",corn; [4],0
same,"Plant response rating, Ducksalad",ducksalad; [8],40
same,"Plant response rating, Ducksalad","ducksalad; 250 g ai/ha, scale 0 to 100",85
same,"Plant response rating, Crabgrass, Large","crabgrass, large; [1]",98
same,"Plant response rating, Crabgrass, Large","crabgrass, large; [2]",98
same,"Crabgrass, Large plant response rating","crabgrass, large; [3]",90
same,"Plant response rating, Crabgrass, Large","crabgrass, large; [4]",100
O=C1NCC(c2ccc(F)c(F)c2)C1C(=O)Nc1cccc(F)c1F (racemic) [Compound 101],"Plant response rating, Foxtail, Giant","foxtail, giant; [9]",0
same,"Plant response rating, Foxtail, Giant","foxtail, giant; [10]",20
same,"Plant response rating, Foxtail, Giant","foxtail, giant; [11]",75
same,"Plant response rating, Foxtail, Giant","foxtail, giant; [12]",90
same,"Foxtail, Giant plant response rating","foxtail, giant; [13]",95
same,"Plant response rating, Foxtail, Giant","foxtail, giant; [1]",95
same,"Plant response rating, Foxtail, Giant","foxtail, giant; [2]",98
same,"Plant response rating (scale of 0 to 100), Foxtail, Giant","foxtail, giant; Preemergence, 250 g ai/ha",98
same,"Plant response rating, Foxtail, Giant",giant foxtail; [5],80
same,"Plant response rating, Foxtail, Giant",giant foxtail; [6],90
same,"Foxtail, Giant plant response rating",giant foxtail; 125 g ai/ha,90
same,"Plant response rating, Foxtail, Giant",giant foxtail; [7],90
same,"Plant response rating, Pigweed",pigweed; [9],0
same,"Plant response rating, Pigweed",pigweed; [10],10
same,"Plant response rating, Pigweed",pigweed; [11],15
same,"Plant response rating, Pigweed",pigweed; [12],45
same,Pigweed plant response rating,pigweed; [13],0
same,"Plant response rating, Pigweed",pigweed; [1],0
same,"Plant response rating, Pigweed",pigweed; [2],55
same,"Plant response rating (scale of 0 to 100), Pigweed","pigweed; Preemergence, 250 g ai/ha",85
same,"Plant response rating, Velvetleaf",velvetleaf; [9],0
same,"Plant response rating, Velvetleaf",velvetleaf; [10],0
same,"Plant response rating, Velvetleaf",velvetleaf; [11],10
same,"Plant response rating, Velvetleaf",velvetleaf; [12],30
same,Velvetleaf plant response rating,velvetleaf; [13],15
same,"Plant response rating, Velvetleaf",velvetleaf; [1],0
same,"Plant response rating, Velvetleaf",velvetleaf; [2],5
same,"Plant response rating (scale of 0 to 100), Velvetleaf","velvetleaf; Preemergence, 250 g ai/ha",70
same,"Plant response rating, Corn",corn; [9],0
same,"Plant response rating, Corn",corn; [10],0
same,"Plant response rating, Corn",corn; [11],0
same,"Plant response rating, Corn",corn; [12],0
same,Corn plant response rating,corn; [13],0
same,"Plant response rating, Corn",corn; [1],0
same,"Plant response rating, Corn",corn; [2],5
same,"Plant response rating (scale of 0 to 100), Corn","corn; Preemergence, 250 g ai/ha",65
same,"Plant response rating, Ducksalad",ducksalad; [14],90
same,"Plant response rating, Ducksalad","ducksalad; 250 g ai/ha, scale 0 to 100",95
same,"Plant response rating, Ducksalad","ducksalad; 500 g ai/ha, scale 0 to 100",100
same,"Plant response rating, Ducksalad","ducksalad; 1000 g ai/ha, scale 0 to 100",100
same,"Plant response rating, Crabgrass, Large","crabgrass, large; [9]",25
same,"Plant response rating, Crabgrass, Large","crabgrass, large; [10]",50
same,"Plant response rating, Crabgrass, Large","crabgrass, large; [11]",80
same,"Plant response rating, Crabgrass, Large","crabgrass, large; [12]",85
same,"Crabgrass, Large plant response rating","crabgrass, large; [13]",95
same,"Plant response rating, Crabgrass, Large","crabgrass, large; [1]",98
same,"Plant response rating, Crabgrass, Large","crabgrass, large; [2]",98
same,"Plant response rating (scale of 0 to 100), Crabgrass, Large","crabgrass, large; Preemergence, 250 g ai/ha",100
"O=C1NCC(c2ccccc2)C1(Br)C(=O)Nc1ccccc1F (stereo not drawn) [Compound 93, 3-bromo-N-(2-fluorophenyl)-2-oxo-4-phenyl-3-pyrrolidinecarboxamide]","Foxtail, Giant plant response rating",giant foxtail; 125 g ai/ha,80
same,pest or weed control at 125 g/ha,"giant foxtail; Setaria faberi, post-emergence, 240 h, Postemergence, 125 g ai/ha, 0 to 100 scale, 0 no effect, 100 complete control, read-out: Plant response rating, Foxtail, Giant",10%
same,pest or weed control at 500 g/ha,"giant foxtail; Setaria faberi, post-emergence, 240 h, Postemergence, 500 g ai/ha, 0 to 100 scale (0 no effect, 100 complete control), read-out: Plant response rating, Foxtail, Giant",60%
same,pest or weed control at 500 g/ha,"giant foxtail; Setaria faberi, pre-emergence, 240 h, preemergence, 500 g ai/ha, 0 to 100 scale, read-out: Plant response rating, Foxtail, Giant",90%
same,"Plant response rating, Ducksalad","ducksalad; 31 g ai/ha, scale of 0 to 100 where 0 is no effect and 100 is complete control, 13 to 15 days",0
same,"Plant response rating, Ducksalad",ducksalad; [8],0
same,"Plant response rating, Ducksalad",ducksalad; [14],0
same,"Plant response rating, Ducksalad","ducksalad; 250 g ai/ha, scale 0 to 100",85

# Source: patent US10294202B2, “Pyrrolidinones as herbicides” (FMC Corporation, priority 2013, dated 2019)
